Reference: US20240150356A1, “Pyrimidine amide compounds and use thereof” (ALPHALA CO., LTD., priority 2019, published 2024)
Like-named read-outs stand apart in the source and are kept apart here.

Assays:
Assay type in all cases: cell-based
[1] = system: NCI-H460 (human lung cancer cell line); assay: In vitro MTS cell viability assay (NCI-60 methodology), NCI-H460; details: NCI-H460 cells, read-out: NCI-H460 LC50
Method: (§1) The cell viability measurement is based on the NCI-60 screening methodology (Nat. Rev. Cancer 6, 813-823, 2006). Briefly, cells are inoculated into 96-well plates at the optimal plating density. After 24 h, one of the two plates for Hep3B cell line is processed to determine a time zero cell viability (Tz) by MTS assay (Promega). Compounds are added over a 2-fold serial dilution to provide a total five drug concentrations plus DMSO control. Plates are incubated for a further 2 days, then measured cell viability by MTS assay [control growth (C) and test growth in the presence of drug at the five concentration levels (Ti)]. The LC50 is calculated from [(Ti−Tz)/Tz]×100=−50, which is the drug concentration resulting in a 50% reduction at the end of the drug treatment as compared to that at the beginning.
(§2) The compounds prepared in Tables 1-10 were tested in three in vitro assays, and the results are shown in Tables 1-10 for Hep3B and Table 11 for SW480 and NCI-H460 shown below. Herein, Hep3B refers to hepatocellular carcinoma cell line, SW480 refers to colon adenocarcinoma cell line, and NCI-H460 refers to human lung cancer cell line.
(§3) Shown in Tables 11 are in vitro activities of exemplary compounds of formula (I).

[2] = system: Hep3B cells (hepatocellular carcinoma cell line); assay: In vitro MTS cell viability assay (NCI-60 methodology), Hep3B; details: Homo sapiens, 48 h, 2 days drug incubation, 50% reduction vs time zero, read-out: Hep3B LC50
In short: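 Following NCI-60 method, MTS viability of Hep3B measured 24 h after plating (time zero) and after a further 2-day exposure to five concentrations (2-fold series). LC50 defined where [(Ti−Tz)/Tz]×100 = −50.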

[3] = system: SW480 (colon adenocarcinoma cell line); assay: In vitro MTS cell viability assay (NCI-60 methodology), SW480; details: Homo sapiens, SW480 cells, read-out: SW480 LC50
Method: as §1, §2, §3

With `N#Cc1ccc(-c2nc(NC(=O)c3ccc([N+](=O)[O-])s3)c3cnn(-c4ccccc4)c3n2)cc1` [Compound 5-32, N-(6-(4-cyanophenyl)-1-phenyl-1H-pyrazolo[3,4-d]pyrimidin-4-yl)-5-nitrothiophene-2-carboxamide] the CC50 [1] was 1160 nM, the LC50 ([2]; Table 5, MTS) was 110 nM and the CC50 [3] was 2770 nM.

With `COc1ccc(-c2nc(NC(=O)c3ccc([N+](=O)[O-])s3)c3cnn(-c4ccc(F)cc4)c3n2)cn1` [Compound 6-121, N-(1-(4-fluorophenyl)-6-(6-methoxypyridin-3-yl)-1H-pyrazolo[3,4-d]pyrimidin-4-yl)-5-nitrothiophene-2-carboxamide] the CC50 [1] was 480 nM, the LC50 ([2]; Table 6, MTS) was 70 nM and the CC50 [3] was 630 nM.

In the case of `CCOCCOCCOc1ccc(-c2nc(NC(=O)c3ccc([N+](=O)[O-])s3)c3cnn(-c4ccc(OC)cc4)c3n2)cn1` [Compound 6-28, N-(6-(6-(2-(2-ethoxyethoxy)ethoxy)pyridin-3-yl)-1-(4-methoxyphenyl)-1H-pyrazolo[3,4-d]pyrimidin-4-yl)-5-nitrothiophene-2-carboxamide], the CC50 [1] is reported as 680 nM, the LC50 ([2]; Table 6, MTS) is reported as 190 nM and the CC50 [3] is reported as 3440 nM.

For `O=C(Nc1nc(-c2ccc3c(c2)OCO3)nc2c1cnn2-c1cccc(Cl)c1)c1ccc([N+](=O)[O-])s1` [Compound 6-39, N-(6-(benzo[d][1,3]dioxol-5-yl)-1-(3-chlorophenyl)-1H-pyrazolo[3,4-d]pyrimidin-4-yl)-5-nitrothiophene-2-carboxamide], the CC50 [1] was 1070 nM, the LC50 ([2]; Table 6, MTS) was 270 nM and the CC50 [3] was 3180 nM.

In the case of `O=C(Nc1nc(-c2ccc(F)nc2)nc2c1cnn2-c1cccc(Cl)c1)c1ccc([N+](=O)[O-])s1` [Compound 6-36, N-(1-(3-chlorophenyl)-6-(6-fluoropyridin-3-yl)-1H-pyrazolo[3,4-d]pyrimidin-4-yl)-5-nitrothiophene-2-carboxamide], the CC50 [1] is reported as 670 nM, the LC50 ([2]; Table 6, MTS) is reported as 90 nM and the CC50 [3] is reported as 2800 nM.

Molecule `O=C(Nc1nc(-c2ccc(F)cc2)nc2c1cnn2C1CCCCC1)c1ccc([N+](=O)[O-])s1` [Compound 10-13, N-(1-cyclohexyl-6-(4-fluorophenyl)-1H-pyrazolo[3,4-d]pyrimidin-4-yl)-5-nitrothiophene-2-carboxamide] has a CC50 [1] of 2620 nM, an LC50 ([2]; Table 10, MTS) of 700 nM and a CC50 [3] of 1730 nM.

`O=C(Nc1nc(-c2ccc(OC(F)(F)F)cc2)nc2c1cnn2-c1ccccc1)c1ccc([N+](=O)[O-])s1` [Compound 5-40, 5-nitro-N-(1-phenyl-6-(4-(trifluoromethoxy)phenyl)-1H-pyrazolo[3,4-d]pyrimidin-4-yl)thiophene-2-carboxamide] was tested, and the CC50 [1] was 930 nM, the LC50 ([2]; Table 5, MTS) was 430 nM and the CC50 [3] was 5420 nM.

`Cc1ccc(-c2nc(NC(=O)c3ccc([N+](=O)[O-])s3)c3cnn(-c4ccc(F)cc4)c3n2)cn1` [Compound 6-120, N-(1-(4-fluorophenyl)-6-(6-methylpyridin-3-yl)-1H-pyrazolo[3,4-d]pyrimidin-4-yl)-5-nitrothiophene-2-carboxamide] was tested, and the CC50 [1] was 1340 nM, the LC50 ([2]; Table 6, MTS) was 250 nM and the CC50 [3] was 510 nM.

With `O=C(Nc1nc(-c2ccc(Cl)cc2F)nc2c1cnn2-c1ccc(F)cc1)c1ccc([N+](=O)[O-])s1` [Compound 6-128, N-(6-(4-chloro-2-fluorophenyl)-1-(4-fluorophenyl)-1H-pyrazolo[3,4,d]pyrimidin-4-yl)-5-nitrothiophene-2-carboxamide] the CC50 [1] was 310 nM, the LC50 ([2]; Table 6, MTS) was 70 nM and the CC50 [3] was 570 nM.

In the case of `Cc1ccc(-n2ncc3c(NC(=O)c4ccc([N+](=O)[O-])s4)nc(-c4ccc(F)nc4)nc32)cc1` [Compound 6-5, N-(6-(6-fluoropyridin-3-yl)-1-(p-tolyl)-1H-pyrazolo[3,4-d]pyrimidin-4-yl)-5-nitrothiophene-2-carboxamide], the CC50 [1] is reported as 910 nM, the LC50 ([2]; Table 6, MTS) is reported as 110 nM and the CC50 [3] is reported as 650 nM.

Molecule `CC(C)(C)n1ncc2c(NC(=O)c3ccc([N+](=O)[O-])s3)nc(-c3ccc(OC(F)(F)F)cc3)nc21` [Compound 1-27, N-(1-(tert-butyl)-6-(4-(trifluoromethoxy)phenyl)-1H-pyrazolo[3,4-d]pyrimidin-4-yl)-5-nitrothiophene-2-carboxamide] has a CC50 [1] of 1990 nM, an LC50 ([2]; Table 1, MTS) of 610 nM and a CC50 [3] of 4140 nM.

For `CCOCCOCCOc1ccc(-c2nc(NC(=O)c3ccc([N+](=O)[O-])s3)c3cnn(-c4cccc(Cl)c4)c3n2)cn1` [Compound 6-45, N-(1-(3-chlorophenyl)-6-(6-(2-(2-ethoxyethoxy)ethoxy)pyridin-3-yl)-1H-pyrazolo[3,4-d]pyrimidin-4-yl)-5-nitrothiophene-2-carboxamide], the CC50 [1] was 570 nM, the LC50 ([2]; Table 6, MTS) was 220 nM and the CC50 [3] was 580 nM.

For `O=C(Nc1nc(-c2ccc(F)c(F)c2)nc2c1cnn2-c1ccccc1)c1ccc([N+](=O)[O-])s1` [Compound 5-44, N-(6-(3,4-difluorophenyl)-1-phenyl-1H-pyrazolo[3,4-d]pyrimidin-4-yl)-5-nitrothiophene-2-carboxamide], the CC50 [1] was 4640 nM, the LC50 ([2]; Table 5, MTS) was 250 nM and the CC50 [3] was 1620 nM.

`Cn1ncc2c(NC(=O)c3ccc([N+](=O)[O-])s3)nc(/C=C/c3ccc(C(F)(F)F)cc3)nc21` [Compound 1-11, (E)-N-(1-methyl-6-(4-(trifluoromethyl)styryl)-1H-pyrazolo[3,4-d]pyrimidin-4-yl)-5-nitrothiophene-2-carboxamide] showed a CC50 [1] of 2620 nM, an LC50 ([2]; Table 1, MTS) of 1710 nM and a CC50 [3] of 2240 nM.

With `O=C(Nc1nc(-c2ccc(Cl)nc2)nc2c1cnn2-c1ccc(F)cc1)c1ccc([N+](=O)[O-])s1` [Compound 6-119, N-(6-(6-chloropyridin-3-yl)-1-(4-fluorophenyl)-1H-pyrazolo[3,4-d]pyrimidin-4-yl)-5-nitrothiophene-2-carboxamide] the CC50 [1] was 530 nM, the LC50 ([2]; Table 6, MTS) was 80 nM and the CC50 [3] was 690 nM.

In the case of `N#Cc1ccc(-c2nc(NC(=O)c3ccc([N+](=O)[O-])s3)c3cnn(-c4ccccc4)c3n2)cn1` [Compound 5-33, N-(6-(6-cyanopyridin-3-yl)-1-phenyl-1H-pyrazolo[3,4-d]pyrimidin-4-yl)-5-nitrothiophene-2-carboxamide], the CC50 [1] is reported as 1800 nM, the LC50 ([2]; Table 5, MTS) is reported as 300 nM and the CC50 [3] is reported as 600 nM.

With `COC(=O)c1ccc(-c2nc(NC(=O)c3ccc([N+](=O)[O-])s3)c3cnn(C4CCN(C(=O)OC(C)(C)C)CC4)c3n2)cc1` [Compound 9-3, tert-butyl 4-(6-(4-(methoxycarbonyl)phenyl)-4-(5-nitrothiophene-2-carboxamido)-1H-pyrazolo[3,4-d]pyrmidin-1-yl)piperidine-1-carboxylate] the CC50 [1] was 1220 nM, the LC50 ([2]; Table 9, MTS) was 420 nM and the CC50 [3] was 2720 nM.

In the case of `O=C(Nc1nc(-c2ccc(F)nc2)nc2c1cnn2-c1ccc(C(F)(F)F)cc1)c1ccc([N+](=O)[O-])s1` [Compound 6-54, N-(6-(6-fluoropyridin-3-yl)-1-(4-(trifluoromethyl)phenyl)-1H-pyrazolo[3,4-d]pyrimidin-4-yl)-5-nitrothiophene-2-carboxamide], the CC50 [1] is reported as 330 nM, the LC50 ([2]; Table 6, MTS) is reported as 130 nM and the CC50 [3] is reported as 340 nM.

`O=C(Nc1nc(-c2ccc(Cl)c(F)c2)nc2c1cnn2-c1ccc(F)cc1)c1ccc([N+](=O)[O-])s1` [Compound 6-127] gave a CC50 [1] of 450 nM, an LC50 ([2]; Table 6, MTS) of 150 nM and a CC50 [3] of 1060 nM.

In the case of `O=C(Nc1nc(-c2ccc(N3CCCCC3)nc2)nc2c1cnn2-c1ccccc1)c1ccc([N+](=O)[O-])s1` [Compound 5-42, 5-nitro-N-(1-phenyl-6-(6-(piperidin-1-yl)pyridin-3-yl)-1H-pyrazolo[3,4-d]pyrimidin-4-yl)thiophene-2-carboxamide], the CC50 [1] is reported as 1670 nM, the LC50 ([2]; Table 5, MTS) is reported as 510 nM and the CC50 [3] is reported as 890 nM.

`CC(C)(C)OC(=O)N1CCC(n2ncc3c(NC(=O)c4ccc([N+](=O)[O-])s4)nc(-c4ccc(Cl)cc4)nc32)CC1` [Compound 9-5, tert-butyl 4-(6-(4-chlorophenyl)-4-(5-nitrothiophene-2-carboxamido)-1H-pyrazolo [3,4-d]pyrimidin-1-yl)piperidine-1-carboxylate] showed a CC50 [1] of 1300 nM, an LC50 ([2]; Table 9, MTS) of 450 nM and a CC50 [3] of 2780 nM.

In the case of `O=C(Nc1nc(-c2ccc(F)nc2)nc2c1cnn2-c1ccc(F)cc1)c1ccc([N+](=O)[O-])s1` [Compound 6-116, N-(1-(4-fluorophenyl)-6-(6-fluoropyridin-3-yl)-1H-pyrazolo[3,4-d]pyrimidin-4-yl)-5-nitrothiophene-2-carboxamide], the CC50 [1] is reported as 500 nM, the LC50 ([2]; Table 6, MTS) is reported as 90 nM and the CC50 [3] is reported as 550 nM.

For `O=C(Nc1nc(-c2cccnc2)nc2c1cnn2-c1ccc(F)cc1)c1ccc([N+](=O)[O-])s1` [Compound 6-111, N-(1-(4-fluorophenyl)-6-(pyridin-3-yl)-1H-pyrazolo[3,4-d]pyrimidin-4-yl)-5-nitrothiophene-2-carboxamide], the CC50 [1] was 1870 nM, the LC50 ([2]; Table 6, MTS) was 90 nM and the CC50 [3] was > 4000 nM.
